Measurements: patent publication US20130109682A1, “CYCLIC ETHER COMPOUNDS USEFUL AS KINASE INHIBITORS” (NOVARTIS AG, priority 2010, published 2013)
Where two headings read alike, the source gives them in different places.

Columns and labels:
PIM1 = PIM1 (Homo sapiens, UniProt P11309); assay: KinaseGlo Pim1 ATP depletion assay; assay type: biochemical
In short: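 2.5 nM PIM1 preincubated 15 min with compound and 40 μM BAD peptide in 50 mM HEPES pH 7.5, 5 mM MgCl2, 1 mM DTT, 0.05% BSA, 2.5% DMSO. The reaction was started with 20 μM ATP (final) and run to about 50% ATP depletion. Remaining ATP read by KinaseGlo Plus luminescence to give IC50.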

KDR kinase = KDR kinase (Homo sapiens, UniProt P35968); assay: KDR kinase inhibition assay (LanthaScreen TR-FRET); assay type: biochemical
KDR kinase, sequence (P35968 20-1356): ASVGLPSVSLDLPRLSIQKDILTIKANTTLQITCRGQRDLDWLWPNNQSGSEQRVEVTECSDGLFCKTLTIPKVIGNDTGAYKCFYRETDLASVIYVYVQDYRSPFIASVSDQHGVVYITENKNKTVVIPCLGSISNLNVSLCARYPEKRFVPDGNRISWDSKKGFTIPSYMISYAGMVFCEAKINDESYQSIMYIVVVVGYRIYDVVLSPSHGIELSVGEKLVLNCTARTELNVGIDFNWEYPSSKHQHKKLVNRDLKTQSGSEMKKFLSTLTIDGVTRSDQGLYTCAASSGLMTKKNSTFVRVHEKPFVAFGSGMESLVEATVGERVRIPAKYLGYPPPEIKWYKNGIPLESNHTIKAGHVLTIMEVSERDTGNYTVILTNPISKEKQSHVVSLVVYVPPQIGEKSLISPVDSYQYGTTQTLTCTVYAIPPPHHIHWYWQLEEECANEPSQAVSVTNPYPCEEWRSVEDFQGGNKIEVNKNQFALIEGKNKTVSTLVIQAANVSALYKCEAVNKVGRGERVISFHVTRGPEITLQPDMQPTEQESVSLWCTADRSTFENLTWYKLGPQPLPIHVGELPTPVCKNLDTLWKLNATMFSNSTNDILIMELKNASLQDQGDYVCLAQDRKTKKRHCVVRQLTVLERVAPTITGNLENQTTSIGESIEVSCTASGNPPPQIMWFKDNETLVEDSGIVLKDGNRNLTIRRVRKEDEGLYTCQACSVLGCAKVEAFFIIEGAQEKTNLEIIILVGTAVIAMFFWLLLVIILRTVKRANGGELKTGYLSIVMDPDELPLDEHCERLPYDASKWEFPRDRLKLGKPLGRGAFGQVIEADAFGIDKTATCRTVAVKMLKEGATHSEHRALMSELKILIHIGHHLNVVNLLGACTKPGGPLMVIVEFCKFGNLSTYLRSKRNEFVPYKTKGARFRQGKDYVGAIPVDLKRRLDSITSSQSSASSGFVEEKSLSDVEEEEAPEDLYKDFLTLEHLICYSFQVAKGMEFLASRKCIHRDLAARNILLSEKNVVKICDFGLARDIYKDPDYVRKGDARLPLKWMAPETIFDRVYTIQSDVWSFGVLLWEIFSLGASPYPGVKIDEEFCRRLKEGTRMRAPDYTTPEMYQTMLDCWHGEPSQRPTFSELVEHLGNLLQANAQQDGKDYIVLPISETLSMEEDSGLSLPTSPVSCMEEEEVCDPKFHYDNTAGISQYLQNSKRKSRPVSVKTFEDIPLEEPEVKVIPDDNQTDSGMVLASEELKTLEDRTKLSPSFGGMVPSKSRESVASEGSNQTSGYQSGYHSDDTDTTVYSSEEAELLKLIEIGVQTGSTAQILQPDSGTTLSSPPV
Experimental: KDR Kinase Inhibition Assay
(§1) LanthaScreen™ is the detection of Time-Resolved Fluorescence Resonance Energy Transfer (TR-FRET) using lanthanide chelates to measure interactions between various binding partners. The application of TR-FRET to assay kinase activity was first described by Mathis (1995). A TR-FRET assay was used to measure KDR kinase inhibitory activity. The assay panel was run on a Biomek FX liquid handling workstations. To the assay plates containing 50 nL compound or control solutions, 4.5 μL of buffer A (50 mM TRIS-HCl pH 7.4, 2 mM DTT, 0.02% Tween 20, 0.02 mM Na3VO4, H2O nanpure) including a generic concentration of ATP (2 μM f.c.) was added per well, followed by 4.5 μL of buffer B (4 uM ATP in Buffer A) including a generic concentration of polyEAY (50 nM f.c.), KDR kinase, and divalent cations. Final concentration of kinase and cations were: [KDR kinase]=0.38 nM, [Mg]=10 mM, [Ca]=1 mM. After 1 hour of incubation the kinase reactions were stopped by the addition of 4.5 μL of stop solution D (50 mM EDTA, 20 mM TRIS-HCl pH 7.4, 0.04% NP-40) immediately followed by 4.5 μL of buffer A (50 mM TRIS-HCl pH 7.4, 2 mM DTT, 0.02% Tween 20, 0.02 mM Na3VO4, H2O nanpure) including the Tb-labeled P-20 antibody to give a total detection volume of 18 μL. After an incubation time of 45 min in the dark, the plates were transferred into the Pherastar fluorescence reader for counting. The effect of compound on the enzymatic activity was obtained from the linear progress curves and determined from one reading (end point measurement).

hERG = target: T1, hERG (Homo sapiens, UniProt Q12809); assay: hERG binding assay ([3H] dofetilide displacement); details: dofetilide displacement; read-out: HERGdof IC50
T1 construct: host or cells: crude membrane suspension
T1 sequence (Q12809 whole entry): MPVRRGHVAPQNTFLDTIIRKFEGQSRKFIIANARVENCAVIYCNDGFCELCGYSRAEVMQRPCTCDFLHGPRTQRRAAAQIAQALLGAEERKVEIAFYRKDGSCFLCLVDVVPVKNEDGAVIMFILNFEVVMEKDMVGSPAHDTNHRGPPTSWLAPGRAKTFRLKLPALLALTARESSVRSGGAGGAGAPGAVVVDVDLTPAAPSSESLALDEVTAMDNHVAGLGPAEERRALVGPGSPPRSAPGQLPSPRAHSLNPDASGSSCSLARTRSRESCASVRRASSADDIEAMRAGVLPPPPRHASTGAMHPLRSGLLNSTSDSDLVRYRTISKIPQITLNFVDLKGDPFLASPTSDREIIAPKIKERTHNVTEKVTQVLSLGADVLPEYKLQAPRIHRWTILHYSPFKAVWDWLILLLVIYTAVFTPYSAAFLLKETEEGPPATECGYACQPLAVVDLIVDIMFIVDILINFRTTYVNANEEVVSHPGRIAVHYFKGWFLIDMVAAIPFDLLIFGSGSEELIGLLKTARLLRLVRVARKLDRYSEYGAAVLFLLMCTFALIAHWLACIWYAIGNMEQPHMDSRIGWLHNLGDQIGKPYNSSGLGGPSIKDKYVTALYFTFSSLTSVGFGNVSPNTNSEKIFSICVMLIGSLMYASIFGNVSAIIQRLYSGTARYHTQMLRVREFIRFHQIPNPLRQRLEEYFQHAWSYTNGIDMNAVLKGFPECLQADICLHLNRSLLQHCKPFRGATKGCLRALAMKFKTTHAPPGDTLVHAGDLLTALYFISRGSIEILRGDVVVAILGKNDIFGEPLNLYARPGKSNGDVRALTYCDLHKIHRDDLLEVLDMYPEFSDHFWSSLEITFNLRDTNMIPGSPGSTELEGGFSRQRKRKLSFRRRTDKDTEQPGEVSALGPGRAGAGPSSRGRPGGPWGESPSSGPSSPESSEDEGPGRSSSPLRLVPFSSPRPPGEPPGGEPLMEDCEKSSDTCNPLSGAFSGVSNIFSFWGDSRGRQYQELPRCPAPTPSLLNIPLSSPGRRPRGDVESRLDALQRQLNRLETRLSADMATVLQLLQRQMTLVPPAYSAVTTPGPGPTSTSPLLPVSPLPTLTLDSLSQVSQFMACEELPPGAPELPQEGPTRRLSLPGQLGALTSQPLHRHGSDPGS
In short: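 Displacement of 2.5 nM [3H]dofetilide from crude hERG membranes (ca. 15 μg protein) by filtration binding, 90 min at room temperature, 0.5% DMSO final. Non-specific binding defined with 25 μM terfenadine; compounds run as 9-point duplicate curves from 30 μM to 3 nM.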

FGFR3 kinase = FGFR3 kinase (Homo sapiens, UniProt P22607); assay: FGFR3 kinase inhibition assay (LanthaScreen TR-FRET); assay type: biochemical
FGFR3 kinase, sequence (P22607 23-806): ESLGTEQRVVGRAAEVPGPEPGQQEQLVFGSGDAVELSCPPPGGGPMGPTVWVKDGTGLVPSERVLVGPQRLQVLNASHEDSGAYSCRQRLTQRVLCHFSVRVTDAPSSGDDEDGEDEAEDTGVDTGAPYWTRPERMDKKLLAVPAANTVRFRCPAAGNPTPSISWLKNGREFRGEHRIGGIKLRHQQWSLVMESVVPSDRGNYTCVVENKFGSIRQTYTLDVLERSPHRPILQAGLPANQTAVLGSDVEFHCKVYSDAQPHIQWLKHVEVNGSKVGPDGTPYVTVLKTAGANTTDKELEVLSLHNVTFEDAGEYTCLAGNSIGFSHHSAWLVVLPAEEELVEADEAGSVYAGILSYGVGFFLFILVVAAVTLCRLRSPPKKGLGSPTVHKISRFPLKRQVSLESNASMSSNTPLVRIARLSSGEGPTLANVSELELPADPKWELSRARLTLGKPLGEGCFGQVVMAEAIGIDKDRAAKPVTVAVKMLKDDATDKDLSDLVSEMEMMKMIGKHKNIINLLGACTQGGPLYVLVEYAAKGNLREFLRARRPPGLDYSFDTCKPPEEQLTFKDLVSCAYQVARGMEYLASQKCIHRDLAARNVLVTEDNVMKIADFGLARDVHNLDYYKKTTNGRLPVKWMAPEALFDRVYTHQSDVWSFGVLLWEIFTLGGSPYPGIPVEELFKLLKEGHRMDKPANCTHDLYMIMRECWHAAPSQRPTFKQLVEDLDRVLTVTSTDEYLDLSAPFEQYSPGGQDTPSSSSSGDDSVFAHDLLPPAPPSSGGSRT
Experimental: FGFR3 Kinase Inhibition Assay
as §1, with “FGFR3” for “KDR”, “[…]” for “nL”, “[FGFR3 kinase]=0.20” for “[KDR kinase]=0.38”, “[Mg]=3” for “[Mg]=10”, “[Mn]=3” for “[Ca]=1”

PIM1, sequence (P11309 whole entry): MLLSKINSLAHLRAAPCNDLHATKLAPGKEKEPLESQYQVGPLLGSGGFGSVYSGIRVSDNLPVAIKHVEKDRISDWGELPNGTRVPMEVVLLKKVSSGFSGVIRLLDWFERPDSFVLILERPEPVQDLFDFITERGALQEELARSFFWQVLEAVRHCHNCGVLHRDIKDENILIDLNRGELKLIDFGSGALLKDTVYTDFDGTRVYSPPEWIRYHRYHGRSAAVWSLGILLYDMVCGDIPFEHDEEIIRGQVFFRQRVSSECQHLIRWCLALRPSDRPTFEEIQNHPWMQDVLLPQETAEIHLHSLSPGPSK

Row | IC50 (PIM1) | IC50 (KDR kinase) | IC50 (KDR kinase; TR-FRET assay) | IC50 (FGFR3 kinase) | Structure (SMILES) | IC50 (hERG)
1 | 25.9 nM | 10 nM |  |  | C=C1[C@@H](O)C[C@@H](c2ccncc2NC(=O)c2nc(-c3ccccc3)cnc2N)OC12CC2 [Example 5, 3-amino-N-(4-((5S,7S)-7-hydroxy-8-methylene-4-oxaspiro[2.5]octan-5-yl)pyridin-3-yl)-6-phenylpyrazine-2-carboxamide] | > 30000 nM
2 | 5 nM | > 10000 nM |  |  | C[C@H]1O[C@@H](c2ccncc2NC(=O)c2nc(-c3ccccc3)ncc2N)C[C@@H](O)[C@]1(C)O [Example 32, 5-amino-N-(4-((2R,4R,5S,6R)-4,5-dihydroxy-5,6-dimethyltetrahydro-2H-pyran-2-yl)pyridin-3-yl)-2-phenylpyrimidine-4-carboxamide] | > 30000 nM
3 | 1 nM | 1 nM |  |  | Nc1ncc(-c2ccccc2)nc1C(=O)Nc1cnccc1[C@H]1C[C@@H](O)[C@H](O)[C@@H](CCl)O1 [Example 36, 3-amino-N-(4-((2R,4R,5S,6S)-6-(chloromethyl)-4,5-dihydroxytetrahydro-2H-pyran-2-yl)pyridin-3-yl)-6-phenylpyrazine-2-carboxamide] | > 30000 nM
4 | 4 nM | > 10000 nM |  |  | CC[C@H]1O[C@@H](c2ccncc2NC(=O)c2nc(-c3ccccc3)ncc2N)C[C@@H](O)[C@@H]1O [Example 39, 5-amino-N-(4-((2R,4R,5S,6R)-6-ethyl-4,5-dihydroxytetrahydro-2H-pyran-2-yl)pyridin-3-yl)-2-phenylpyrimidine-4-carboxamide] | > 30000 nM
5 | 9 nM | 280 nM |  |  | C[C@H]1O[C@@H](c2ccncc2NC(=O)c2nc(-c3ccccc3)cnc2N)[C@H](F)[C@@H](O)[C@]1(C)O [Example 58, 3-amino-N-(4-((2S,3R,4S,5S,6R)-3-fluoro-4,5-dihydroxy-5,6-dimethyltetrahydro-2H-pyran-2-yl)pyridin-3-yl)-6-phenylpyrazine-2-carboxamide] | > 30000 nM
6 | 6 nM | 220 nM |  |  | C[C@@H]1O[C@H](c2ccncc2NC(=O)c2nc(-c3ccccc3)cnc2N)[C@@H](F)[C@H](O)[C@@]1(C)O [Example 63, 3-amino-N-(4-((2R,3S,4R,5R,6S)-3-fluoro-4,5-dihydroxy-5,6-dimethyltetrahydro-2H-pyran-2-yl)pyridin-3-yl)-6-phenylpyrazine-2-carboxamide] | > 30000 nM
7 | 1 nM | 16 nM |  |  | C[C@H]1O[C@@H](c2ccncc2NC(=O)c2nc(-c3ccccc3)cnc2N)C[C@@H](O)[C@]1(C)O [Example 84, 3-amino-N-(4-((2R,4R,5S,6R)-4,5-dihydroxy-5,6-dimethyltetrahydro-2H-pyran-2-yl)pyridin-3-yl)-6-phenylpyrazine-2-carboxamide] | > 30000 nM
8 | 5 nM | 300 nM |  |  | C[C@@H]1O[C@H](c2ccncc2NC(=O)c2nc(-c3ccccc3)cnc2N)C[C@H](O)[C@@]1(C)O [Example 86, 3-amino-N-(4-((2S,4S,5R,6S)-4,5-dihydroxy-5,6-dimethyltetrahydro-2H-pyran-2-yl)pyridin-3-yl)-6-phenylpyrazine-2-carboxamide] | 25000 nM
9 |  |  | 6.8 nM | 44 nM | Nc1ncc(-c2ccccc2)nc1C(=O)Nc1cnccc1[C@H]1C[C@@H](N)[C@@]2(O)CCC[C@H]2O1 [Example 183, 3-amino-N-(4-((2R,4R,4aS,7aR)-4-amino-4a-hydroxyoctahydrocyclopenta[b]pyran-2-yl)pyridin-3-yl)-6-phenylpyrazine-2-carboxamide] | 
10 |  |  | 2000 nM | > 10000 nM | Nc1ncc(-c2ccccc2)nc1C(=O)Nc1cnccc1[C@@H]1C[C@H](N)[C@]2(O)CCC[C@@H]2O1 [Example 185, 3-amino-N-(4-((2S,4S,4aR,7aS)-4-amino-4a-hydroxyoctahydrocyclopenta[b]pyran-2-yl)pyridin-3-yl)-6-phenylpyrazine-2-carboxamide] | 
11 |  |  | 42 nM | 830 nM | CC[C@]1(O)[C@H](N)C[C@H](c2ccncc2NC(=O)c2nc(-c3ccccc3)cnc2N)O[C@@H]1C [Example 187, 3-amino-N-(4-((2R,4R,5S,6R)-4-amino-5-ethyl-5-hydroxy-6-methyltetrahydro-2H-pyran-2-yl)pyridin-3-yl)-6-phenylpyrazine-2-carboxamide] | 
12 |  |  | 40 nM |  | Nc1ncc(-c2ccccc2)nc1C(=O)Nc1cnccc1[C@H]1C[C@@H](N)[C@@]2(O)CCCC[C@H]2O1 [Example 197, 3-amino-N-(4-((2R,4R,4aS,8aR)-4-amino-4a-hydroxyoctahydro-2H-chromen-2-yl)pyridin-3-yl)-6-phenylpyrazine-2-carboxamide] | 
13 |  |  | 62 nM |  | Nc1ncc(-c2ccccc2)nc1C(=O)Nc1cnccc1[C@H]1C[C@@H](N)[C@H]2CCC[C@H]2O1 [Example 199, 3-amino-N-(4-((2R,4R,4aR,7aR)-4-aminooctahydrocyclopenta[b]pyran-2-yl)pyridin-3-yl)-6-phenylpyrazine-2-carboxamide] | 
14 |  |  | 3000 nM |  | Nc1ncc(-c2ccccc2)nc1C(=O)Nc1cnccc1[C@@H]1C[C@H](N)[C@@H]2CCC[C@@H]2O1 [Example 233, 3-amino-N-(4-((2S,4S,4aS,7aS)-4-aminooctahydrocyclopenta[b]pyran-2-yl)pyridin-3-yl)-6-phenylpyrazine-2-carboxamide] | 
15 |  |  | 8400 nM |  | Nc1ncc(-c2ccccc2)nc1C(=O)Nc1cnccc1[C@@H]1C[C@H](N)[C@]2(O)CCCC[C@@H]2O1 [Example 243, 3-amino-N-(4-((2S,4S,4aR,8aS)-4-amino-4a-hydroxyoctahydro-2H-chromen-2-yl)pyridin-3-yl)-6-phenylpyrazine-2-carboxamide] | 
16 |  |  | 220 nM |  | C[C@@]1(O)[C@@H](N)C[C@@H](c2ccncc2NC(=O)c2nc(-c3ccccc3)cnc2N)OC12CC2 [Example 350, 3-amino-N-(4-((5S,7S,8R)-7-amino-8-hydroxy-8-methyl-4-oxaspiro[2.5]octan-5-yl)pyridin-3-yl)-6-phenylpyrazine-2-carboxamide] | 
17 |  |  | 7 nM |  | C[C@]1(O)[C@@H](N)C[C@H](c2ccncc2NC(=O)c2nc(-c3ccccc3)cnc2N)OC12CC2 [Example 351, 3-amino-N-(4-((5R,7S,8S)-7-amino-8-hydroxy-8-methyl-4-oxaspiro[2.5]octan-5-yl)pyridin-3-yl)-6-phenylpyrazine-2-carboxamide] | 
18 |  |  | 28 nM |  | C[C@@]1(O)[C@H](N)C[C@@H](c2ccncc2NC(=O)c2nc(-c3ccccc3)cnc2N)OC12CC2 [Example 352, 3-amino-N-(4-((5S,7R,8R)-7-amino-8-hydroxy-8-methyl-4-oxaspiro[2.5]octan-5-yl)pyridin-3-yl)-6-phenylpyrazine-2-carboxamide] | 
19 |  |  | 250 nM |  | C[C@]1(O)[C@H](N)C[C@H](c2ccncc2NC(=O)c2nc(-c3ccccc3)cnc2N)OC12CC2 [Example 353, 3-amino-N-(4-((5R,7R,8S)-7-amino-8-hydroxy-8-methyl-4-oxaspiro[2.5]octan-5-yl)pyridin-3-yl)-6-phenylpyrazine-2-carboxamide] | 
